This passage reports IC50 results from patent US20240270751A1, “Pyrazolopyridinone Compounds” (BeiGene Ltd., priority 2021, published 2024).

The target of one test is DGKζ (Homo sapiens (Human), UniProt Q13574). As to the kind of experiment: Biochemical DGK IC50 assay, DGKζ ADP-Glo assay. The note with it: 0.5 nM enzyme, 140 μM ATP, 80 μM DAG; read-out: DGKζ ADP-Glo assay IC50. Put shortly:
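ADP formation measured by ADP-Glo luminescence, with test compounds at final 1.55–10000 nM or 23.3–150000 nM. Enzyme: purified full-length human DGKζ from Sf9 insect cells; substrate: DAG/PS micelles in 25 mM HEPES pH 7.0, 0.5 mM EDTA, octyl glucoside.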
Background: In ADP-Glo the light output rises with the ADP produced.

Another test has as its target DGKα (Homo sapiens (Human), UniProt P23743). As to the kind of experiment: Biochemical DGK IC50 assay, DGKα ADP-Glo assay. The following applies: 7.5 nM enzyme, 140 μM ATP, 80 μM DAG. Put shortly: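 Compounds at final 1.55˜10000 nM or 23.3˜150000 nM were tested against full-length DGKα. Substrate was lipid micelles of DAG and PS resuspended in 25 mM HEPES pH 7.0 with 0.5 mM EDTA and 160 mM octyl β-D-glucopyranoside. ADP formed was detected by ADP-Glo.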

Sequence of DGKα (P23743 whole entry): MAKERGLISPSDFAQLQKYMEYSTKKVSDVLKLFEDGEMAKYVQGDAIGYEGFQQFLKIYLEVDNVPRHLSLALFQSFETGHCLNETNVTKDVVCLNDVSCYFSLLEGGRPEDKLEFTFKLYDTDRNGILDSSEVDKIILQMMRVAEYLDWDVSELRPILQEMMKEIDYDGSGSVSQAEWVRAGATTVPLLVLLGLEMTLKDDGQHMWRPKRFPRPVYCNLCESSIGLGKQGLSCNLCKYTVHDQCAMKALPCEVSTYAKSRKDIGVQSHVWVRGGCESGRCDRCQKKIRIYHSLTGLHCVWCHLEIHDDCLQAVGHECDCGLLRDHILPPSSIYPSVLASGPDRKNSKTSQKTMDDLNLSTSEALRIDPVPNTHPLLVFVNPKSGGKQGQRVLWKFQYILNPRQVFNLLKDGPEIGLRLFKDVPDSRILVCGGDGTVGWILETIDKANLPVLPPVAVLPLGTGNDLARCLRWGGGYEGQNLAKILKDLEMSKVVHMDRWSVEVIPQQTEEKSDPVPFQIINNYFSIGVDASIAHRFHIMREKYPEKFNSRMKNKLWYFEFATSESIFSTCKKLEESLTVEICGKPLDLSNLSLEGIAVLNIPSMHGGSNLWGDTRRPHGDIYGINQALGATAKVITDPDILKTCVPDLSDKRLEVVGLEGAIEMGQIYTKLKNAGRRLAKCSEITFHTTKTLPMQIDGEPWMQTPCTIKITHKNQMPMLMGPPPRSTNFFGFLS
Sequence of DGKζ (Q13574 other isoform, or with tags, fused parts or gaps): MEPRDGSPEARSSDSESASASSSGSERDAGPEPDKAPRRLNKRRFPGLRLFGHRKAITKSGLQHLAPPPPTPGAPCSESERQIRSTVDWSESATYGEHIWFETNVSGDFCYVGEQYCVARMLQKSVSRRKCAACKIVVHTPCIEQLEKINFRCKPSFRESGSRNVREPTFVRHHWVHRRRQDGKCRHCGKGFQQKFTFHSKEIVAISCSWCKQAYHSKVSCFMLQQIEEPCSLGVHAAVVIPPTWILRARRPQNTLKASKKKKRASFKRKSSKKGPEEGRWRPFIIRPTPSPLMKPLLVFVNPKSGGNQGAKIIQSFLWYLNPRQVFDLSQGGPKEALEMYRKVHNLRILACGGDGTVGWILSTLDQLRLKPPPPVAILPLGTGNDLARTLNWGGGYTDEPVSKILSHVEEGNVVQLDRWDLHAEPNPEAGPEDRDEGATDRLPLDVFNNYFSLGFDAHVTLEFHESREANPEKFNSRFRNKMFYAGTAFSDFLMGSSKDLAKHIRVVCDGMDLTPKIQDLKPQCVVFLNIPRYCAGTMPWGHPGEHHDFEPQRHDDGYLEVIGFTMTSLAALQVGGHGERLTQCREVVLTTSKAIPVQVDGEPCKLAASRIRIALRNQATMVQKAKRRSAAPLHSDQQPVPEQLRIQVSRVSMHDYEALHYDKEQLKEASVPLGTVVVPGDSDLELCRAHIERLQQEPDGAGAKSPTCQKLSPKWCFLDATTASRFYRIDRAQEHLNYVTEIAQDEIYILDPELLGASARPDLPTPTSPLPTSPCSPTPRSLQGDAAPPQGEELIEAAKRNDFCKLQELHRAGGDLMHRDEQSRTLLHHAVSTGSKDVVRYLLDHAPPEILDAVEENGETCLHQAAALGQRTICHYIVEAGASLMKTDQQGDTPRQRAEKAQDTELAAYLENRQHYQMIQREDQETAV

Turning to `CC(c1ccc2nccnc2c1)N1C[C@H](C)N(c2cc(=O)n(C)c3cn(C4CC4)nc23)C[C@H]1C` (stereo partly drawn) [Compound A17, 2-cyclopropyl-7-((2S,5R)-2,5-dimethyl-4-(1-(quinoxalin-6-yl)ethyl)piperazin-1-yl)-4-methyl-2,4-dihydro-5H-pyrazolo[4,3-b]pyridin-5-one], the IC50 (as a rule, the concentration that gives 50% inhibition) is 13000 nM at DGKζ and 9000 nM at DGKα.

With `CC(c1cc2ccccc2cn1)N1C[C@H](C)N(c2cc(=O)n(C)c3cn(CC#N)nc23)C[C@H]1C` (stereo partly shown) [Compound A305], the concentration for half-maximal inhibition (IC50) at DGKζ is 1190 nM; against DGKα, 1490 nM.

On to `CCc1cc(F)ccc1C(C)N1C[C@H](CC)N(c2cc(=O)n(C)c3cn(CC#N)nc23)C[C@H]1CC` (stereo partly drawn) [Compound A205, 2-(7-((2S,5R)-2,5-diethyl-4-(1-(2-ethyl-4-fluorophenyl)ethyl)piperazin-1-yl)-4-methyl-5-oxo-4,5-dihydro-2H-pyrazolo[4,3-b]pyridin-2-yl)acetonitrile], for which the IC50 at DGKζ came to 151 nM; against DGKα it was 63700 nM.

Take `CC(c1ccc2ncc(CO)nc2c1)N1C[C@H](C)N(c2cc(=O)n(C)c3cn(CC#N)nc23)C[C@H]1C` (single isomer, unassigned) [Compound A309a]: the IC50 is greater than 10000 nM on DGKζ and 118000 nM against DGKα.

Regarding `CC(c1ccc2nc(C(F)(F)F)cnc2c1)N1C[C@H](C)N(c2cc(=O)n(C)c3cn(CC#N)nc23)C[C@H]1C` (stereo partly drawn) [Compound A315, 2-(7-((2S,5R)-2,5-dimethyl-4-(1-(2-(trifluoromethyl)quinoxalin-6-yl)ethyl)piperazin-1-yl)-4-methyl-5-oxo-4,5-dihydro-2H-pyrazolo[4,3-b]pyridin-2-yl)acetonitrile], the IC50 at DGKζ was 3590 nM; against DGKα it was 61000 nM.

Regarding `CC[C@H]1CN(C(C)c2nc3cccnc3n2CC)[C@H](CC)CN1c1cc(=O)n(C)c2cn(CC#N)nc12` (single isomer, unassigned) [Compound A185a], the IC50 on DGKζ and at DGKα was greater than 10000 nM in each case.

As to `Cc1ccc2ccc(C(C)N3C[C@H](C)N(c4cc(=O)n(C)c5cn(CC#N)nc45)C[C@H]3C)cc2n1` (stereo partly shown) [Compound A306], the IC50 is 495 nM on DGKζ and 18200 nM at DGKα.

`CC[C@H]1CN(C(C)c2ccc(CN3CCOC(C)(C)C3)cc2)[C@H](CC)CN1c1cc(=O)n(C)c2cn(CC#N)nc12` (stereo partly shown) [Compound A342]: the values for the concentration for half-maximal inhibition (IC50) at DGKζ and against DGKα were 353 nM and 229 nM, respectively.

For `CCC(c1ccc(F)cc1C(F)(F)F)N1C[C@H](CC)N(c2cc(=O)n(C)c3cn(CC#N)nc23)C[C@H]1CC` (stereo partly shown) [Compound A293], the results for the IC50 at DGKζ and against DGKα were 237 nM and 9950 nM, respectively.

For the molecule `CC(c1ccc(F)cc1P(C)(C)=O)N1C[C@H](C)N(c2cc(=O)n(C)c3cn(CC#N)nc23)C[C@H]1C` (stereo partly shown) [Compound A285], the IC50 on DGKζ and at DGKα was greater than 10000 nM in each case.

Consider `CC[C@H]1CN(C(C)c2ccc3c(n2)C(C)(C)CO3)[C@H](CC)CN1c1cc(=O)n(C)c2cn(CC#N)nc12` (stereo partly drawn) [Compound A352, 2-(7-((2S,5R)-4-(1-(3,3-dimethyl-2,3-dihydrofuro[3,2-b]pyridin-5-yl)ethyl)-2,5-diethylpiperazin-1-yl)-4-methyl-5-oxo-4,5-dihydro-2H-pyrazolo[4,3-b]pyridin-2-yl)acetonitrile], for which the IC50 on DGKζ stood at 6 nM; on DGKα, 5400 nM.

Take `CC[C@H]1CN(C(C)c2cnc(C)c(C)n2)[C@H](CC)CN1c1cc(=O)n(C)c2cn(CC#N)nc12` (single isomer, unassigned) [Compound A355b]: the IC50 at DGKζ was 176 nM; at DGKα, 2150 nM.

As for `CC[C@H]1CN(C(C)c2ccncn2)[C@H](CC)CN1c1cc(=O)n(C)c2cn(CC#N)nc12` (stereo partly shown) [Compound A131], the IC50 at DGKζ was 8990 nM; against DGKα, 287 nM.

Take `CC[C@H]1CN(C(C)c2ccc(C)nn2)[C@H](CC)CN1c1cc(=O)n(C)c2cn(CC#N)nc12` (stereo partly shown) [Compound A365]: the IC50 was found to be 4710 nM at DGKζ and 794 nM at DGKα.

Turning to `CC(c1ccc2nccnc2c1)N1C[C@H](C)N(c2cc(=O)n(C)c3cn(C4(C#N)CC4)nc23)C[C@H]1C` (stereo partly drawn) [Compound A16, 1-(7-((2S,5R)-2,5-dimethyl-4-(1-(quinoxalin-6-yl)ethyl)piperazin-1-yl)-4-methyl-5-oxo-4,5-dihydro-2H-pyrazolo[4,3-b]pyridin-2-yl)cyclopropane-1-carbonitrile], the concentration for half-maximal inhibition (IC50) at DGKζ is 4200 nM; against DGKα, 9600 nM.

As to `C=CCCn1cc2c(n1)c(N1C[C@@H](C)N(C(C)c3ccc4nccnc4c3)C[C@@H]1C)cc(=O)n2C` (single isomer, unassigned) [Compound A300, 2-(but-3-en-1-yl)-7-((2S,5R)-2,5-dimethyl-4-((S)-1-(quinoxalin-6-yl)ethyl)piperazin-1-yl)-4-methyl-2,4-dihydro-5H-pyrazolo[4,3-b]pyridin-5-one, or 2-(but-3-en-1-yl)-7-((2S,5R)-2,5-dimethyl-4-((R)-1-(quinoxalin-6-yl)ethyl)piperazin-1-yl)-4-methyl-2,4-dihydro-5H-pyrazolo[4,3-b]pyridin-5-one], the IC50 was found to be 524 nM on DGKζ and 54000 nM on DGKα.

Turning to `CC[C@H]1CN(C(C)c2ccccn2)[C@H](CC)CN1c1cc(=O)n(C)c2cn(CC#N)nc12` (stereo partly shown) [Compound A90], the IC50 at DGKζ was found to be 1900 nM; on DGKα, 13 nM.

Regarding `CC[C@H]1CN(C(C)c2cnn(CC)c2C(F)(F)F)[C@H](CC)CN1c1cc(=O)n(C)c2cn(CC#N)nc12` (single isomer, unassigned) [Compound A119a], the IC50 stood at 15 nM at DGKζ and 8090 nM against DGKα.

As to `C[C@@H]1CN(c2c(Cl)c(=O)n(C)c3cn(CC#N)nc23)[C@@H](C)CN1[C@@H](C)c1ccc2nccnc2c1` [Compound A133, 2-(6-chloro-7-((2S,5R)-2,5-dimethyl-4-((S)-1-(quinoxalin-6-yl)ethyl)piperazin-1-yl)-4-methyl-5-oxo-4,5-dihydro-2H-pyrazolo[4,3-b]pyridin-2-yl)acetonitrile], the IC50 was 9390 nM on DGKζ and greater than 10000 nM against DGKα.

`CC(OC(F)F)c1cc(F)ccc1C(C)N1C[C@H](C)N(c2cc(=O)n(C)c3cn(CC#N)nc23)C[C@H]1C` (stereo partly drawn) [Compound A328, 2-(7-((2S,5R)-4-(1-(2-(1-(difluoromethoxy)ethyl)-4-fluorophenyl)ethyl)-2,5-dimethylpiperazin-1-yl)-4-methyl-5-oxo-4,5-dihydro-2H-pyrazolo[4,3-b]pyridin-2-yl)acetonitrile]: the IC50 at DGKζ is 143 nM; against DGKα, 83000 nM.

Turning to `CC#CCn1cc2c(n1)c(N1C[C@@H](C)N(C(C)c3ccc4nccnc4c3)C[C@@H]1C)cc(=O)n2C` (mixture of isomers) [Compound A22, 2-(but-2-yn-1-yl)-7-((2S,5R)-2,5-dimethyl-4-(1-(quinoxalin-6-yl)ethyl)piperazin-1-yl)-4-methyl-2,4-dihydro-5H-pyrazolo[4,3-b]pyridin-5-one], the IC50 is 94 nM at DGKζ and 200 nM against DGKα.

Turning to `CC[C@H]1CN(C(C)c2ccc(F)cc2OC(F)(F)F)[C@H](CC)CN1c1cc(=O)n(C)c2cn(CC#N)nc12` (stereo partly drawn) [Compound A170, 2-(7-((2S,5R)-2,5-diethyl-4-(1-(4-fluoro-2-(trifluoromethoxy)phenyl)ethyl)piperazin-1-yl)-4-methyl-5-oxo-4,5-dihydro-2H-pyrazolo[4,3-b]pyridin-2-yl)acetonitrile], the figures for the IC50 on DGKζ and against DGKα were 887 nM and greater than 10000 nM, respectively.

Consider `CC[C@H]1CN(C(C)c2ccc(F)cc2C(F)(F)F)[C@H](CC)CN1c1cc(=O)n(C)c2cn(CC#N)nc12` (single isomer, unassigned) [Compound A196b], for which the IC50 on DGKζ worked out at 38 nM; on DGKα, 93200 nM.

`CC[C@H]1CN(C(C)c2ccc(CN3CCC(F)(F)CC3)nc2)[C@H](CC)CN1c1cc(=O)n(C)c2cn(CC#N)nc12` (single isomer, unassigned) [Compound A381b]: the concentration for half-maximal inhibition (IC50) at DGKζ is 2330 nM; against DGKα, 2090 nM.

As to `Cc1cnc2ccc([C@H](C)N3C[C@H](C)N(c4c(F)c(=O)n(C)c5cn(CC#N)nc45)C[C@H]3C)cc2n1` [Compound A317, 2-(7-((2S,5R)-2,5-dimethyl-4-((S)-1-(3-methylquinoxalin-6-yl)ethyl)piperazin-1-yl)-6-fluoro-4-methyl-5-oxo-4,5-dihydro-2H-pyrazolo[4,3-b]pyridin-2-yl)acetonitrile], the IC50 worked out at 21 nM on DGKζ and 8650 nM against DGKα.

Turning to `CC[C@H]1CN(C(C)c2ccc3nccnc3c2)[C@H](CC)CN1c1cc(=O)n(CCOC)c2cn(CC#N)nc12` (stereo partly drawn) [Compound A96, 2-(7-((2S,5R)-2,5-diethyl-4-(1-(quinoxalin-6-yl)ethyl)piperazin-1-yl)-4-(2-methoxyethyl)-5-oxo-4,5-dihydro-2H-pyrazolo[4,3-b]pyridin-2-yl)acetonitrile], the IC50 at DGKζ was 255 nM; against DGKα, greater than 10000 nM.

As for `COCc1ccc(C(C)N2C[C@H](C)N(c3cc(=O)n(C)c4cn(CC#N)nc34)C[C@H]2C)cc1` (stereo partly shown) [Compound A31], the IC50 at DGKζ came out at 8100 nM; at DGKα, 1200 nM.

`CC[C@H]1CN(C(C)c2ccc(F)c(F)c2C(F)(F)F)[C@H](CC)CN1c1cc(=O)n(C)c2cn(CC#N)nc12` (stereo partly shown) [Compound A288]: the IC50 was 263 nM on DGKζ and 3400 nM at DGKα.

Take `CC[C@H]1CN(C(C)c2ccc(C3CC3)cc2OC)[C@H](CC)CN1c1cc(=O)n(C)c2cn(CC#N)nc12` (single isomer, unassigned) [Compound A199a]: the IC50 at DGKζ is 2460 nM; against DGKα it was greater than 10000 nM.
